Assay results reported in paper PMC5549732 (PLoS ONE, 2017).
“And” between values parts separate entries of the source, which are not always exact repeats. Equal values may be shown once.

How the values were obtained:
HCT116-luc2 tumors [1] = assay: TfV-750 fluorescence imaging (FLI) of tumor transferrin receptor expression; format: in vivo, nu/nu mice
Description: In addition, the imager is equipped with suitable excitation and emission filter sets for FLI of BRS-680 and TfV-750. Tumor metabolic activities were visualized by IV injection of a mixture of these two NIR imaging agents (2 nmol/mouse each in a total volume of 100 μl of PBS). The agents were injected 16 h prior to FLI imaging in order to allow optimal probe uptake and clearance of unbound probe. For the longitudinal FLI imaging studies, separate cohorts were used for FLI acquisitions on days 1 (n = 10, imaging agents injected on day 0), 2 (n = 10, injected on day 1), and 3 (n = 5, injected on day 2) due to the extended time required for probe washout. […]
(§1) BLI and FLI images were analyzed using the Living Image software (version 4.4 for Windows, PerkinElmer Inc.). Tumor BLI and FLI signals were quantified using the region of interest (ROI) tools, and the total optical signals were calculated as total flux (photon counts/sec) and total radiant efficiency [(p/s)/(μW/cm^2)], respectively. […] All PET images were represented as standard uptake value (SUV) using the VivoQuant 3.0 software and tumor-specific ^18F-FDG uptake levels were also calculated using SUVtotal. […] For each treatment group, we calculated relative tracer uptake in tumors using the day 0 uptake level as 100%. […]

HCT116-luc2 tumors [2] = assay: H&E histology of tumor tissue sections; format: in vivo, nu/nu mice; settings: sorafenib 120 mg/kg, days 0-4 and 7-9; day 9
Description: Tumor tissues were fixed in 10% neutral buffered formalin, followed by routine process and embedment in paraffin. Tissue sections (5 μm) were prepared on electrostatically charged glass slides and then baked at 60°C overnight. After washing the slides with three washes in xylene, the slides were rehydrated through a series of graded ethanol (100%, 90% and 70%) to water. The prepared slides were then stained with hematoxylin and eosin.
Fig 1 Sorafenib, a tyrosine kinase inhibitor, effectively suppresses HCT116-luc2 tumor growth. Nude mice bearing subcutaneous tumors on the flanks were treated with vehicle or with 120 mg/kg of sorafenib on days 0–4 and days 7–9 via oral gavage. A: Longitudinal tumor volume measurements of subcutaneous HCT116-luc2 tumors (***p < 0.0001, n = 5 per group, two-way ANOVA, mean and s.e.m., representative of three studies) B: H&E staining of tumor tissue sections harvested from the vehicle and sorafenib-treated (120 mg/kg) tumors on day 9. […] Bar: 50 μm.

[3] = system: HCT116-luc2 subcutaneous xenografts; assay: Caliper tumor volume measurement of subcutaneous HCT116-luc2 xenografts
Description: Specific pathogen-free nu/nu (Crl:NU-Fox1^nu, 6–8 weeks old) and CD-1 (Crl:CD1[ICR]) mice were purchased from Charles River Laboratories (Wilmington, MA). Mice were housed in a controlled environment (72°F; 12:12-h light-dark cycle) under specific-pathogen free conditions with water and food provided ad libitum. To induce tumor growth, 2.5 x10^6 of HCT116-luc2 cells were subcutaneously injected on the right flank of a nude mouse. Two weeks after cancer cell inoculation, when the tumor volume reached an appropriate size (measured by caliper and calculated by the formula 0.5 x length x width^2), animals were randomized into vehicle or different sorafenib treatment groups as indicated. Sorafenib was prepared in water containing 6.2% of ethanol and 6.2% of Kolliphor EL (Sigma-Aldrich, St. Louis, MO). The treatment was given daily 5 times a week by oral gavage at 15 μl per gram of body weight.
We initiated the treatment when the average HCT116-luc2 tumor size for each group reached ~180 mm^3 in volume (day 0). The drug was given daily via oral gavage at a dosage of 120 mg/kg from days 0 to 4 and from days 7 to 9.
In this set of studies (Fig 2), treatments were initiated when the average group HCT116-luc2 tumor size reached ~100 mm^3 in volume. […] The drug was given daily, from days 0 to 4 and from days 7 to 11. In addition to the conventional tumor volume measurements by caliper, we performed BLI of firefly luciferase activity to access tumor viability on the days indicated.

HCT116-luc2 tumors [4] = assay: BLI of firefly luciferase activity (tumor viability) in HCT116-luc2 xenografts; format: in vivo, nu/nu mice
Description: Optical BLI and FLI were performed using the IVIS® SpectrumCT, which is capable of imaging multiple mice simultaneously (up to 5 mice). To generate BLI signals, the tumor-bearing mice received IP injections of 75 mg/kg of D-luciferin (potassium salt, PerkinElmer Inc.) and were placed into the imager for sequential image acquisitions (settings: FOV = D, Binning = 16, F/Stop = 1, Open filter, 2 min delay between each acquisition) under 1–2% of isoflurane anesthesia. Maximal bioluminescence output for each tumor was determined by sequentially acquiring a BLI image every two minutes for up to 16 min. Typical peak imaging time for the HCT116-luc2 subcutaneous model was approximately 10 min, and BLI images are represented in units of radiance (p/sec/cm^2/sr).
(§2) BLI and FLI images were analyzed using the Living Image software (version 4.4 for Windows, PerkinElmer Inc.). Tumor BLI and FLI signals were quantified using the region of interest (ROI) tools, and the total optical signals were calculated as total flux (photon counts/sec) and total radiant efficiency [(p/s)/(μW/cm^2)], respectively. For greater accuracy, all FLI data was corrected for background levels based on specific measurements as described in the figure legends. All PET images were represented as standard uptake value (SUV) using the VivoQuant 3.0 software and tumor-specific ^18F-FDG uptake levels were also calculated using SUVtotal. […] For each treatment group, we calculated relative tracer uptake in tumors using the day 0 uptake level as 100%. For statistical analysis, we used the GraphPad Prism software (version 6.0 for Windows, La Jolla, CA). Data are presented as the mean ± standard error of the mean (s.e.m.). Statistical analysis was conducted using ANOVA or Student’s t-test, as indicated. P < 0.05 was the cutoff for being considered statistically significant.

HCT116-luc2 tumors [5] = assay: 18F-FDG microPET imaging of tumor glucose uptake; format: in vivo, nu/nu mice; settings: sorafenib 40 mg/kg daily oral gavage; days 2 and 3 post-treatment; n = 5 per group
Description: We also performed microPET imaging using ^18F-FDG as a tracer for detecting changes in tumor glucose uptake with or without treatment. Images were acquired using the G8 PET/CT system (PerkinElmer Inc.). For each mouse, 100 μCi of ^18F-FDG (PETNET Solutions Inc., Malvern PA) was injected intravenously (IV), and all mice were kept warm and maintained under 1.5% isoflurane gas anesthesia for 1 hour for tracer uptake. Subsequently, the mice were imaged with a standard 10 min static F-18 imaging protocol. The G8 PET/CT system automatically performed image reconstruction after acquisition and provided 3D tomography imaging in the DICOM format. We were able to image the same cohorts (n = 5) throughout the course of study since ^18F has a relative short decay half-life (~110 min). […]
as §1

HCT116-luc2 tumors [6] = assay: BRS-680 fluorescence imaging (FLI) of tumor bombesin receptor expression; format: in vivo, nu/nu mice; settings: for inhibition of BRS-680 tumor FLI signal: sorafenib 40 mg/kg daily oral gavage
Description: In addition, the imager is equipped with suitable excitation and emission filter sets for FLI of BRS-680 and TfV-750. Tumor metabolic activities were visualized by IV injection of a mixture of these two NIR imaging agents (2 nmol/mouse each in a total volume of 100 μl of PBS). The agents were injected 16 h prior to FLI imaging in order to allow optimal probe uptake and clearance of unbound probe. For the longitudinal FLI imaging studies, separate cohorts were used for FLI acquisitions on days 1 (n = 10, imaging agents injected on day 0), 2 (n = 10, injected on day 1), and 3 (n = 5, injected on day 2) due to the extended time required for probe washout. […] Fluorescent signal is represented as radiant efficiency [(p/sec/cm^2/sr)/(μW/cm^2)] or normalized fluorescent signal where appropriate.
as §2, with “SUVtotal. Several similar imaging experiments were performed using this particular HCT116-luc2 tumor model to visualize treatment responses to sorafenib.” for “SUVtotal.”
Besides interfering with glycolytic activity, we believe inhibition of the Ras/Raf/MEK/ERK pathways with sorafenib has a broader, global impact on tumor energy metabolism. […] We wonder if these FLI probes can detect early, yet subtle metabolic disturbances induced by sorafenib treatment prior to the later regression of treated tumors, like we saw with ^18F-FDG PET imaging. […] Separate cohorts were used for FLI acquisitions on days 1, 2, and 3 due to the extended time required for probe washout. Of note, the day 1 cohort was re-injected with probe for imaging on day 10 to assess ultimate treatment efficacy. […]

[7] = Plasma pharmacokinetics of the probes, fluorescence microplate assay; format: in vivo; settings: CD-1 mice; 2 nmoles IV; plasma fluorescence on a microplate reader
Description: (§3) Selectivity was assessed in vitro using HT-29 human colorectal cells; fluorescence signal on BRS-680-labeled cells was ~7X greater than either the scrambled peptide version of the probe or when 100X unlabeled bombesin peptide was used to block labeling (S2 Fig) as assessed by both flow cytometry and fluorescence microscopy. […] Tumor tissue localization co-localized well with ex vivo anti-bombesin receptor staining (S5 Fig).
Selectivity was assessed in vitro by flow cytometry and fluorescence microscopy using HT-29 human colorectal cells; fluorescence signal on TfV-750-labeled cells was ~15X greater than when 100 μM unlabeled recombinant transferrin was used to block labeling (S7 Fig). […] Animals were bled at indicated times, and plasma fluorescence was determined using a microplate assay. […]
Blood samples were obtained via terminal cardiac puncture and plasma fluorescence was quantified on a fluorescence plate reader. […] Epifluorescence levels were determined using TrueQuant™ FMT software and are represented as Mean Fluorescence to compensate for differences in tissue size. […]
B: Quantification of tissue epifluorescence images, with data inset representing plasma pharmacokinetics assessed from serial bleeds of mice measured on a microplate fluorimeter. […]

HT-29 tumors = assay: Biodistribution and in vivo imaging kinetics of the probes in HT-29 tumor-bearing mice; set-up: species or system nu/nu mice
Description: as §3
Selectivity was assessed in vitro by flow cytometry and fluorescence microscopy using HT-29 human colorectal cells; fluorescence signal on TfV-750-labeled cells was ~15X greater than when 100 μM unlabeled recombinant transferrin was used to block labeling (S7 Fig). […] Animals were bled at indicated times, and plasma fluorescence was determined using a microplate assay. […] The probe has good tissue penetration into tumors, as its binding pattern in tumor sections (using a 645 nm FLI surrogate to improve microscopy imaging) correlates well with the transferrin receptor expression on cancer cells and is not associated with the tumor vasculature (S10 Fig).
Blood samples were obtained via terminal cardiac puncture and plasma fluorescence was quantified on a fluorescence plate reader. […] Mice were sacrificed 24 hours post-injection and tissues were excised, rinsed with PBS, and imaged on the FMT 4000 (PerkinElmer, Waltham, MA), in epifluorescence mode. Epifluorescence levels were determined using TrueQuant™ FMT software and are represented as Mean Fluorescence to compensate for differences in tissue size. (TIF) Click here for additional data file.
Noninvasive fluorescence tomographic imaging datasets were used to quantify kinetic fluorescence changes in the tumors, heart, and liver. An optimal imaging time point of 24h was determined based on specificity of tumor signal and tumor’s signal-to-background ratio. (TIF) Click here for additional data file.
B: Quantification of tissue epifluorescence images, with data inset representing plasma pharmacokinetics assessed from serial bleeds of mice measured on a microplate fluorimeter. (TIF) Click here for additional data file.
Elevated TfV-750 signals in the liver and tumor indicate higher iron metabolism in these tissues. (TIF) Click here for additional data file.

[8] = sorafenib 120 mg/kg daily for 8 days, imaged day 9, stated for both FLI probes
[9] = sorafenib 40 mg/kg, first 3 days of treatment
[10] = sorafenib 40 mg/kg, within 2 days of treatment, n = 5 per group
[11] = HT-29 tumor-bearing mice, 2 nmol/mouse IV
[12] = HT-29 tumor-bearing nu/nu mice, 2 nmol IV, tissues excised 24 h post-injection, epifluorescence

In the case of `CNC(=O)c1cc(Oc2ccc(NC(=O)Nc3ccc(Cl)c(C(F)(F)F)c3)cc2)ccn1` [sorafenib, Sorafenib], the “inhibition of TfV-750 tumor FLI signal” value (HCT116-luc2 tumors [1]; sorafenib 40 mg/kg daily oral gavage, day 3, n = 5) is reported as 65% and ~ 70%, the “reduction in TfV-750 FLI signal as compared to controls” value (HCT116-luc2 tumors [1]; [8]) is reported as at least 40% and the “tumor death in H&E stained tumor tissue sections” value (HCT116-luc2 tumors [2]) is reported as “extensive tumor death”. The “decrease of overt tumor size” value ([3]; sorafenib 40 mg/kg daily, by day 10, PET study cohort, n = 5 per group) was ~ 50%, the “growth inhibition in comparison with untreated control tumors” value ([3]; sorafenib 40 mg/kg, by day 10 or 11, over multiple studies) was 50–90% and the “reduction in tumor volume” value [3, 9] was “no significant reduction”. The “reduction in size (tumor volume)” value [3, 10] was “no significant reduction”, the “efficacy against tumor growth by tumor volume, versus vehicle” value ([3]; sorafenib 120 mg/kg oral gavage, days 0-4 and 7-9, n = 5 per group) was “clearly demonstrated the drug’s efficacy” and the “change in tumor volume” value ([3]; sorafenib 120 mg/kg, day 2, n = 5 per group) was “no significant change”. The “reduction in BLI signal” value (HCT116-luc2 tumors [4]; [9]) was “no significant reduction”, the “reduction in viability (assessed by BLI)” value (HCT116-luc2 tumors [4]; [10]) was “no significant reduction” and the “BLI and tumor volume results compared with the 120 mg/kg dose” value (HCT116-luc2 tumors [4]; sorafenib 80 mg/kg daily, days 0-4 and 7-11) was “Comparable results”. For the same molecule, the “suppression of tumor viability (BLI)” value (HCT116-luc2 tumors [4]; sorafenib 120 mg/kg daily, days 0-4 and 7-11, by day 11, n = 5 per group) was ~ 90%, the “reduction in tumor BLI signals” value (HCT116-luc2 tumors [4]; sorafenib 120 mg/kg, 2 days after the treatment began, n = 5 per group) was ~ 40% and the “inhibition of tumor uptake of 18F-FDG” value (HCT116-luc2 tumors [5]) was 55–60% and 50–60%. For the same molecule, the “inhibition of BRS-680 tumor FLI signal” value (HCT116-luc2 tumors [6]; day 2, n = 10) was 40%, the “inhibition of BRS-680 tumor FLI signal” value (HCT116-luc2 tumors [6]; day 3, n = 5) was 79% and the “inhibition of BRS-680 tumor signal” value (HCT116-luc2 tumors [6]; sorafenib 40 mg/kg, within the 2-3 day window, normalized to vehicle control) was 40–80%. For the same molecule, the “reduction in BRS-680 FLI signal as compared to controls” value (HCT116-luc2 tumors [6]; [8]) was at least 40%.

In the case of “TfV-750: PEGylated recombinant transferrin with a NIR fluorescent reporter (ex/em 750/770 nm); transferrin receptor imaging probe”, the “circulation half-life (plasma t1/2)” value [7] is reported as ~ 9 h, the “optimal time for in vivo tumor imaging post injection” value (HT-29 tumors; [11]) is reported as 6 to 24 h and the “time to (near) complete clearance from the system” value (HT-29 tumors; [11]) is reported as “about 4 days”. The “biodistribution to tumors in collected tissues” value (HT-29 tumors; [12]) was “good biodistribution to tumors” and the “route of clearance in collected tissues” value (HT-29 tumors; [12]) was “efficient clearance via kidney excretion”.
